From PMC7822874, “Chemoprotective antimalarials identified through quantitative high-throughput screening of Plasmodium blood and liver stage parasites” (Scientific Reports, 2021)
Where two headings read alike, the source gives them in different places.

How the values were obtained:
[1] = system: P. falciparum Dd2 (clone B2) asexual blood stage parasites; assay: P. falciparum Dd2 asexual blood stage SYBR Green-I 72 h proliferation assay (qHTS); assay type: cell-based, Plasmodium falciparum; conditions: averaged P. falciparum asexual blood stage potency, log10 of AC50 in M
[2] = system: P. berghei-ANKA-GFP-LucCON liver stage parasites in HepG2-A16-CD81EGFP cells; assay: P. berghei liver stage Pb-Luc assay, Method 1 (UCSD, 1536-well); assay type: cell-based, Plasmodium berghei; conditions: P. berghei liver stage, averaged response (percent); for Average P. berghei 1 µM response (%): the header list (r8) defines it as the 1 µM dose
[3] = system: HepG2-A16-CD81EGFP cells; conditions: averaged response (percent)
[4] = in vitro; conditions: human, hepg2-a16-cd81egfp cells
[5] = HepG2, the header list (r10) describes it as the 1 µM dose

Row | SMILES | Pf ABS Log AC50 (M) [1] | Average P. berghei 3 µM response( %) [2] | Average P. berghei 1 µM response (%) [2] | Average HepG2 3 µM response( %) ([3]; HepG2, 3 µM dose) | Average HepG2 3 µM response( %) [3, 5] | viability at 3 µM ([4]; % viability) | viability at 3 µM [4]
1 | CCCCc1c(C)c(C#N)c2nc3ccccc3n2c1Nc1c(C)n(C)n(-c2ccccc2)c1=O [MLS000555448] | -5.662 M | 121% | 128% | 90% | 93% | 90.2% | –
2 | Cc1cc(O)c(CN2CCN(c3ccccc3)CC2)cc1C [MLS000569270] | -5.650 M | 97% | 88% | 107% | 102% | – | 107%
3 | COc1ccc(-c2c[n+](-c3ccccc3)c3n2CCS3)cc1 [MLS000587970] | -5.712 M | 31% | 92% | 88% | 97% | 88.3% | –
4 | Cc1cc(Nc2nc3ccccc3nc2Cl)n(-c2ccccc2C)n1 [MLS000595322] | -6.062 M | 93% | 114% | 98% | 93% | 98.3% | –
5 | COc1ccc(Nc2cc(C)c3ccc(O)cc3n2)cc1 [MLS000674789] | -6.187 M | 118% | 103% | 96% | 88% | 96.2% | –
6 | Cc1cc(C)n(-c2nnc(N3CCN(c4ccccc4)CC3)nn2)n1 [MLS000695202] | -6.012 M | 84% | 102% | 94% | 97% | 93.9% | –
7 | CCN(CC)Cc1cc2[nH]c3c4ccc(Cl)cc4ncc3c2cc1OC [MLS000757007] | -6.700 M | 134% | 108% | 101% | 105% | 101% | –
8 | Cc1ccc(C)c(-n2c(-c3ccc(Br)cc3)csc2=NC(=O)c2ccccc2F)c1 [MLS000766129] | -5.187 M | 44% | 91% | 89% | 97% | 89.1% | –
9 | O=C(Nc1ccc(Nc2ccncc2)cc1)c1ccc(Nc2ccnc3ccc([N+](=O)[O-])cc23)cc1 [MLS000766132] | -6.337 M | 96% | 114% | 90% | 92% | 90.3% | –
10 | Cn1nc(C(F)(F)F)c(-c2ccc(F)cc2)c1NC(=O)Nc1ccc(F)cc1 [MLS000830769] | -5.962 M | 90% | 148% | 99% | 95% | 99% | –
11 | NC1=NC[C@@H](Cc2ccc(O)cc2)N1CCCCC1CCCCC1 [MLS000888822] | -5.487 M | 40% | 86% | 98% | 113% | 97.6% | –
12 | O=C(Nc1ccc(-c2csc(Nc3cccc(C(F)(F)F)c3)n2)cc1)c1cc([N+](=O)[O-])cc(C(F)(F)F)c1 [MLS000911524] | -5.387 M | 73% | 100% | 101% | 101% | 101% | –
13 | N#Cc1c(N2CCN(c3ccc(F)cc3)CC2)nc(N)c2c(N)nc3c(c12)CC(=O)N3C1CC1 [MLS001003889] | -6.262 M | 50% | 101% | 90% | 102% | 89.7% | –
14 | N=c1n(CCN2CCCCC2)c2ccccc2n1CC(=O)c1ccc(Cl)c(Cl)c1 [MLS001042209] | -5.750 M | 89% | 92% | 87% | 89% | 87.4% | –
15 | COc1ccc(NC(=O)CN(C)C(=O)c2ccc(-c3ccccc3Cl)o2)cc1 [MLS001078689] | -5.750 M | 111% | 109% | 105% | 99% | 105% | –
16 | O=C(Nc1ncccc1O)c1ccc(NS(=O)(=O)c2ccc3[nH]c(=O)[nH]c3c2)cc1 [MLS001138628] | -6.437 M | 23% | 59% | 91% | 105% | 91% | –
17 | Nc1nonc1-n1nnc(C(=O)N/N=C/c2ccc(F)cc2)c1-c1ccc2c(c1)OCO2 [MLS001142639] | -6.637 M | 143% | 115% | 95% | 92% | 95.3% | –
18 | Cc1cc(C)c(-c2csc(NC(=O)CCCc3nc4ccccc4c(=O)[nH]3)n2)c(C)c1 [MLS001156669] | -5.900 M | 12% | 72% | 103% | 99% | 103% | –
19 | CCSc1nc2sc3c(c2c(=O)n1-c1ccccc1)CCN(C(C)C)C3 [MLS001173590] | -6.000 M | 63% | 91% | 93% | 100% | 92.6% | –
20 | C=C(C)CSc1nc2sc3c(c2c(=O)n1-c1ccc(C)cc1)CCN(C)C3 [MLS001173676] | -5.800 M | 59% | 87% | 87% | 97% | 86.9% | –
21 | C/C(=N\Nc1ncnc2sc(C)c(C)c12)c1ccccn1 [MLS001176565] | -5.912 M | 5.49% | 9% | 40% | 52% | 40.2% | –
22 | COc1cc(C)cc(CN2CCC(Cc3ccccc3)CC2)c1O [MLS001178265] | -6.137 M | 102% | 89% | 88% | 97% | 87.6% | –
23 | CCOc1ccc(-n2c(SCC(=O)OC)nc3sc4c(c3c2=O)CCN(C)C4)cc1 [MLS001213437] | -5.950 M | 102% | 88% | 103% | 112% | 103% | –
